Assay results published in PubChem BioAssay (NCI).
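Step 1: Grow cells in 96-well plates. Step 2: Expose to compound for 48 hours at 5 concentrations. Step 3: Interpolate endpoints linearly; if unreached, use highest concentration. TGI denotes the concentration required for complete inhibition of growth.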 Where a SMILES comes first, the peptide text is derived from it. [ ]: non-standard residue; d: D form. The star is where a group is joined. hSer = N[CH](CCO)C(=O)O; Boc = CC(C)(C)OC(=O)*

Legend:
Assay in all cases: NCI anticancer screen, dose series, 48 h
[1] = tested on: T-47D breast
[2] = tested on: SNB-19 CNS
[3] = tested on: TK-10 renal
[4] = tested on: NCI-H522 lung
[5] = tested on: BT-549 breast
[6] = tested on: NCI-H226 lung
[7] = tested on: HOP-62 NSCLC
[8] = tested on: SR leukemia
[9] = tested on: A549 NSCLC
[10] = tested on: PC-3 prostate

| SMILES | TGI [1] [µM] | TGI [2] [µM] | TGI [3] [µM] | TGI [4] [µM] | TGI [5] [µM] | TGI [6] [µM] | TGI [7] [µM] | TGI [8] [µM] | TGI [9] [µM] | TGI [10] [µM] |
| --- | --- | --- | --- | --- | --- | --- | --- | --- | --- | --- |
| COC(=O)OC[C@H]1O[C@@H](n2cc(C)c(=O)[nH]c2=O)CC1OC(=O)OC (stereo not given in full) | > 100 | > 100 | > 100 | > 100 | > 100 | > 100 | > 100 | > 100 | > 100 | > 100 |
| COc1ccc2nc3ccc(OC)cc3c(S(=O)Cc3ccc([N+](=O)[O-])cc3)c2c1 (stereo not given) | 4.34 | 52.3 | 10.4 | 3.37 | 33.4 | 45.6 | 30.7 | > 33.6 | > 58 | 27.6 |
| c1ccc(COc2ccc(C[P+](c3ccccc3)(c3ccccc3)c3ccccc3)cc2)cc1 | 0.839 | 14.8 | 1.66 | 1.61 | 3.26 | 22.4 | 3.37 | > 24.2 | 11.3 | 3.07 |
| O=C(C=P(c1ccccc1)(c1ccccc1)c1ccccc1)C12CC3CC(CC(C3)C1)C2 | 38.2 | 27 | 24.4 | 20.6 | 33.8 | – | 32.3 | > 100 | 36 | 24 |
| COc1ccc(C[C@@H]2CN(C(=O)c3ccccc3)[C@H](Cc3ccc(O)cc3)CN2C(=O)c2ccccc2)cc1Br | > 100 | > 100 | > 100 | – | > 100 | > 100 | > 100 | > 100 | > 100 | > 100 |
| CCOC(=O)CC(C)C(C#N)(OP1(=O)OC(c2ccccc2)C(C)N1C)c1ccccc1 (stereo not given) | > 100 | > 100 | > 100 | > 100 | > 100 | – | > 100 | > 100 | > 100 | > 100 |
| Cc1c(C)c(C)c(-n2c(=O)n(C)c(=O)n2C(C)(C)C)c(C)c1C | > 100 | > 100 | > 100 | – | > 100 | – | – | > 100 | > 100 | > 100 |
| CC1C(c2ccc(N(C)C)cc2)c2cc3c(cc2OC1N1CCCC1)OCO3 (stereo not given) | > 100 | > 100 | > 100 | > 82 | > 100 | – | > 78.6 | > 100 | > 100 | > 100 |
| CCC1(O)C=CC(=O)C=C1 | 67.7 | 39.2 | 45.6 | 24.7 | > 100 | 75.3 | 67.5 | > 100 | > 100 | > 62.2 |
| CCOC(=O)NNC(=O)NCCNC(=O)NNC(=O)OCC | > 100 | > 100 | > 100 | > 100 | > 100 | > 100 | – | > 100 | > 100 | > 100 |
| O=C(Cc1ccc(Cl)c(Cl)c1)NCCCN1CCN(CCCN2CCCCC2)CC1 | 44.4 | 63.9 | 32.3 | 35.1 | 57.4 | 42.4 | 32.1 | 29 | 49.5 | 40.7 |
| O=S(=O)(O)c1ccc(NN(c2c(O)ccc3ccccc23)S(=O)(=O)O)cc1 | > 100 | > 100 | > 100 | > 100 | > 100 | > 100 | > 100 | > 100 | > 100 | > 100 |
| COc1c2cc(C(C)(C)C)cc1CSCc1cc(C(C)(C)C)cc(c1OC)CCCCC2 | > 50 | > 50 | > 50 | – | > 50 | > 50 | > 50 | > 50 | > 50 | > 50 |
| CCOC(=O)C1NCCc2c1[nH]c1ccccc21 (stereo not given) | > 10 | – | > 10 | > 10 | > 10 | – | > 10 | > 10 | > 10 | > 10 |
| CN1CC(c2ccccc2)=Cc2c1ccc(N)c2N=N | > 100 | > 100 | > 100 | > 100 | > 100 | > 100 | > 100 | > 100 | > 100 | > 100 |
| COCCC(NC(=O)C(CC(C)C)NC(=O)OC(C)(C)C)C(N)=O (stereo not drawn) (Boc-Leu-[hSer](Me)-NH2; configuration not given here) | > 100 | > 100 | > 100 | > 100 | > 100 | > 100 | > 100 | > 100 | > 100 | > 100 |
| c1cc(-c2cscc2-c2ccsc2)cs1 | > 100 | – | > 100 | – | > 100 | – | > 100 | > 100 | > 100 | > 100 |
| COc1cc2c(cc1OC)C(=O)N(c1ccc(O)cc1)C2 | > 100 | > 100 | > 100 | > 100 | > 100 | > 100 | > 100 | > 100 | > 100 | > 100 |
| COc1ccc(C2SCC(=O)N2N=C2NC(=O)CC(=O)N2)cc1 (stereo not given) | > 100 | – | > 100 | > 100 | > 100 | > 100 | > 100 | > 100 | > 100 | > 100 |
| COC1/C=C\C=C(/C)C(=O)NC2=CC(=O)C(NCCCl)=C(CC(C)CC(OC)C(O)C(C)/C=C(/C)C1OC(N)=O)C2=O (stereo not given) | 20.4 | 13.6 | 14.3 | 0.319 | 2.85 | 8.62 | 5.91 | 1.67 | 14.3 | 8.84 |
| CC(=O)N[C@@H](Cc1ccc(O)cn1)C(=O)NCc1cccc(F)c1 | > 100 | > 100 | > 100 | > 100 | > 100 | > 100 | > 100 | > 100 | > 100 | > 100 |
| COc1ccc(C2CC(c3cc4c(C)c(C(=O)c5ccccc5)oc4cc3O)=Nc3ccccc3S2)cc1OC (stereo not given) | > 85.8 | > 85.8 | > 100 | > 85 | > 100 | > 100 | > 34.3 | > 100 | > 100 | > 100 |
